In patent US8614223B2, “Pyrimidine hydroxy amide compounds as protein deacetylase inhibitors and methods of use thereof” (Acetylon Pharmaceuticals, Inc., priority 2010, dated 2013):
Like-named read-outs stand apart in the source and are kept apart here.

How the values were obtained:
refractory relapsed MM = details: 202 patients with refractory relapsed MM; cited from earlier work
HDAC6 [1] = biological target: T1, HDAC6 (Homo sapiens (Human), UniProt Q9UBN7); assay: biochemical
HDAC3 = HDAC3 (Homo sapiens (Human), UniProt O15379); assay: HDAC enzyme assay, HDAC3; details: for HDAC3 fold over HDAC6 IC50 (selectivity for HDAC6): ratio HDAC3/HDAC6
HDAC1 = HDAC1 (Homo sapiens (Human), UniProt Q13547); assay: HDAC enzyme assay, HDAC1; details: for HDAC1 fold over HDAC6 IC50 (selectivity for HDAC6): ratio HDAC1/HDAC6
HDAC2 = HDAC2 (Homo sapiens (Human), UniProt Q92769); assay: HDAC enzyme assay, HDAC2; details: for HDAC2 fold over HDAC6 IC50 (selectivity for HDAC6): ratio HDAC2/HDAC6
HDAC6 [2] = biological target: T1, HDAC6; details: read-out: HDAC6 IC50

Sequence of HDAC2 (Q92769 whole entry): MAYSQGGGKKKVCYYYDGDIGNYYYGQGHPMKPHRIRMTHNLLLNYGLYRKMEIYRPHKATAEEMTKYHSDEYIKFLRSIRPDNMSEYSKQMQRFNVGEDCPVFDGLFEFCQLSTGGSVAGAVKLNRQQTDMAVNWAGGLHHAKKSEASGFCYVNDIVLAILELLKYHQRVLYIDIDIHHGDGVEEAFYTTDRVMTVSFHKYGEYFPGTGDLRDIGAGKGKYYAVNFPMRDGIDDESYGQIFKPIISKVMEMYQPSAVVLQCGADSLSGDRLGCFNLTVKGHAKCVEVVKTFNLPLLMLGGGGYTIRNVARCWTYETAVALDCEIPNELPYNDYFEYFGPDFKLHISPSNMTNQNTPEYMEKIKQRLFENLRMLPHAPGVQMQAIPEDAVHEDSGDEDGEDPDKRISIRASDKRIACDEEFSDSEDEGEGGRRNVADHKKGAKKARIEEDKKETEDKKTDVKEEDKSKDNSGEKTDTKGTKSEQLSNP
T1 sequence (Q9UBN7 whole entry): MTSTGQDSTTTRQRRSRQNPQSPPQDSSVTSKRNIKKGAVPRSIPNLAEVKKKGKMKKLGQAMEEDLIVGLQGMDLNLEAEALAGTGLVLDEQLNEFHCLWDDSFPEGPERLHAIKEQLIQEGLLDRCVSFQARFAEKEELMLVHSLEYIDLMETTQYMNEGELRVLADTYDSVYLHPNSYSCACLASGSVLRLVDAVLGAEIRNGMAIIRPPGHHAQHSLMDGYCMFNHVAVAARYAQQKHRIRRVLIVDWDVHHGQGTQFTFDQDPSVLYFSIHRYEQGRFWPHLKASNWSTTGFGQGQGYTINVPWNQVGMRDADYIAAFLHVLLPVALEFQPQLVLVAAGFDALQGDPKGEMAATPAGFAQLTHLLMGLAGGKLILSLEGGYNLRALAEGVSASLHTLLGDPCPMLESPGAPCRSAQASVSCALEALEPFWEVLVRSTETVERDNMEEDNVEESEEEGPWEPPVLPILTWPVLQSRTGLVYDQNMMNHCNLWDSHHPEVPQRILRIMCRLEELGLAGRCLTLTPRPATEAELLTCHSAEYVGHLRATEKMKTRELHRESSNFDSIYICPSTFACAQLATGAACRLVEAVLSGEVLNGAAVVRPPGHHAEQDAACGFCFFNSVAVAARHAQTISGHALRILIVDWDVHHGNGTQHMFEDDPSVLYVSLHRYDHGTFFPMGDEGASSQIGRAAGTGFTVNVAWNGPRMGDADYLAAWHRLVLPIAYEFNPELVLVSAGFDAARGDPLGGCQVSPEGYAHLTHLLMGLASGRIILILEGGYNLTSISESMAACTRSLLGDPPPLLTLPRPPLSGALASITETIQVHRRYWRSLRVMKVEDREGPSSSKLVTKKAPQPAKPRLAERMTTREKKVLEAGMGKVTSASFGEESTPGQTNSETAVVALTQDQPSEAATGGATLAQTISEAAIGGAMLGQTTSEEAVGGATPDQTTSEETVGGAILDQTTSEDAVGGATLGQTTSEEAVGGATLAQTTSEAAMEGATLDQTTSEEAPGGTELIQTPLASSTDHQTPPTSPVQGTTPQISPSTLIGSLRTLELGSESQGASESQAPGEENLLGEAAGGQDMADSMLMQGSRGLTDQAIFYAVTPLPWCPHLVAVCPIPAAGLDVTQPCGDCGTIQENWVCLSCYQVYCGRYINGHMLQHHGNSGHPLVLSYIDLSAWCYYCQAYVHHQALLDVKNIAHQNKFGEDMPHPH
Sequence of HDAC1 (Q13547 whole entry): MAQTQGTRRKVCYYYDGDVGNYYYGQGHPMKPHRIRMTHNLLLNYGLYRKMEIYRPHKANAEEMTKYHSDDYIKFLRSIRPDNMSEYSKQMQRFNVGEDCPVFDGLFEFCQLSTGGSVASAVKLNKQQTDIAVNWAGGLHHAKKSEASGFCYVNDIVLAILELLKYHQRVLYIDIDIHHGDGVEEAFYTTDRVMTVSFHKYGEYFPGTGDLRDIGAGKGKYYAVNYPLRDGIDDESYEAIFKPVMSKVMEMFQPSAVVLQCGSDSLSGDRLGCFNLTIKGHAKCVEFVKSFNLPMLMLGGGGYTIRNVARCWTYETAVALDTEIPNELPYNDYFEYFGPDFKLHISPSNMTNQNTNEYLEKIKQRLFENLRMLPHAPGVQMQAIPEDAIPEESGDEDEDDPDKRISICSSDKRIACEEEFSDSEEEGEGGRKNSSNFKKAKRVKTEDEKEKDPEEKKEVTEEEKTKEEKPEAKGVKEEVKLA
Sequence of HDAC3 (O15379 whole entry): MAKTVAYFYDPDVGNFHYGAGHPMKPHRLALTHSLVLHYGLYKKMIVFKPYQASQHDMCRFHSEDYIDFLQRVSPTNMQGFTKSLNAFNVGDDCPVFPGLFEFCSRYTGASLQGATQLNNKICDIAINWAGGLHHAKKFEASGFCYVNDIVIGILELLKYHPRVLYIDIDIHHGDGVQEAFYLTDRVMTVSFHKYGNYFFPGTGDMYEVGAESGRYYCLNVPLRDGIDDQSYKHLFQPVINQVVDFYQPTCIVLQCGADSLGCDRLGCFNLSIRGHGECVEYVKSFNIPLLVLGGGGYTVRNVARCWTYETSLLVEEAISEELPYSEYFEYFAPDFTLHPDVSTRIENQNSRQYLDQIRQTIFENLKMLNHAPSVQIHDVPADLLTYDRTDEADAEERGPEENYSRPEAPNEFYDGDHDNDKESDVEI
Sequence of HDAC3 (Q9Y618 395-489 partner): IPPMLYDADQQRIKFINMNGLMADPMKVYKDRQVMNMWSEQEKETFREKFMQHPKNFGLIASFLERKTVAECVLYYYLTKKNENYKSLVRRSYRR

SMILES | IC50 (HDAC6 [1]) [nM] | IC50 (HDAC3) [nM] | HDAC3 fold over HDAC6 IC50 (selectivity for HDAC6) (HDAC3) | IC50 (HDAC1) [nM] | HDAC1 fold over HDAC6 IC50 (selectivity for HDAC6) (HDAC1) | IC50 (HDAC2) [nM] | HDAC2 fold over HDAC6 IC50 (selectivity for HDAC6) (HDAC2) | IC50 (HDAC6 [2]) [nM] | IC50 (HDAC3; read-out: HDAC3 IC50) [nM] | IC50 (HDAC1; read-out: HDAC1 IC50) [nM] | IC50 (HDAC2; read-out: HDAC2 IC50) [nM] | complete and near complete responses (refractory relapsed MM) [%] | patients did not respond (refractory relapsed MM) [%] | responses (refractory relapsed MM) [%]
CC(C)C[C@H](NC(=O)[C@H](Cc1ccccc1)NC(=O)c1cnccn1)B(O)O [bortezomib] | – | – | – | – | – | – | – | – | – | – | – | 10 | 65 | 35
COc1ccc(C2(Nc3ncc(C(=O)NO)cn3)CC2)cc1 [Compound 97] | 2 | 37 | (16.4x) | 19 | (8.3x) | 28 | (12.1x) | – | – | – | – | – | – | –
COc1ccccc1C1(Nc2ncc(C(=O)NO)cn2)CC1 [Compound 133] | – | – | (229.8x) | – | (188x) | – | (152.9x) | 3 | 727 | 594 | 483 | – | – | –
O=C(NO)c1cnc(NC2(c3ccc(C(F)(F)F)cc3)CC2)nc1 [Compound 135] | – | – | (51.8x) | – | (22.4x) | – | (17.7x) | 7 | 344 | 149 | 118 | – | – | –
O=C(NO)c1cnc(NC2(c3ccccc3C(F)(F)F)CC2)nc1 [Compound 91] | – | – | (169.4x) | – | (72.3x) | – | (130.2x) | 2 | 374 | 160 | 288 | – | – | –
CC(C)(Nc1ncc(C(=O)NO)cn1)c1ccccc1 [Compound 50] | – | – | (547.1x) | – | (288.1x) | – | (374.6x) | 4 | 2210 | 1170 | 1520 | – | – | –
CC1(Nc2ncc(C(=O)NO)cn2)CCCCC1 [Compound 110] | – | – | (84.7x) | – | (34.5x) | – | (39.9x) | 41 | 3460 | 1410 | 1630 | – | – | –

The remaining compounds from weak to strong by IC50 (HDAC6 [2]), led by results:

IC50 (HDAC6 [1]) [nM] | IC50 (HDAC3) [nM] | HDAC3 fold over HDAC6 IC50 (selectivity for HDAC6) (HDAC3) | IC50 (HDAC1) [nM] | HDAC1 fold over HDAC6 IC50 (selectivity for HDAC6) (HDAC1) | IC50 (HDAC2) [nM] | HDAC2 fold over HDAC6 IC50 (selectivity for HDAC6) (HDAC2) | IC50 (HDAC6 [2]) [nM] | IC50 (HDAC3; read-out: HDAC3 IC50) [nM] | IC50 (HDAC1; read-out: HDAC1 IC50) [nM] | IC50 (HDAC2; read-out: HDAC2 IC50) [nM] | SMILES | complete and near complete responses (refractory relapsed MM) [%] | patients did not respond (refractory relapsed MM) [%] | responses (refractory relapsed MM) [%]
– | – | (81.9x) | – | (50.9x) | – | (92.6x) | 10 | 830 | 516 | 938 | O=C(NO)c1cnc(Nc2cc(Cl)cc(C(F)(F)F)c2)nc1 [Compound 25] | – | – | –
– | – | (21.1x) | – | (19.8x) | – | (34.7x) | 10 | 221 | 206 | 362 | Cc1cc(Nc2ncc(C(=O)NO)cn2)ccn1 [Compound 31] | – | – | –
– | – | (53.9x) | – | (48.8x) | – | (80.8x) | 7 | 401 | 363 | 601 | O=C(NO)c1cnc(NCc2c(Cl)cccc2Cl)nc1 [Compound 48] | – | – | –
– | – | (11x) | – | (3x) | – | (4x) | 6 | 64 | 17 | 23 | Cc1cc(C2(Nc3ncc(C(=O)NO)cn3)CC2)ccc1F [Compound 142] | – | – | –
– | – | (685x) | – | (176.7x) | – | (217.7x) | 3 | 2270 | 586 | 722 | O=C(NO)c1cnc(NC2(c3ccccc3)CCOCC2)nc1 [Compound 95] | – | – | –
